Experimental findings from US20260200888A1, “BIO-BASED COMPOUNDS” (SPECIALTY OPERATIONS FRANCE, priority 2022, published 2026) are described below.

Molecules are shown by their SMILES. Bounds are passed on as bounds.

Data set [1] can be described thus: Solubility of mono-fungicides in the solvent of Example 6 and prior art solvents (Example 7). The note with it: 24° C.; for Maximum solubility (w/v) in Cyrene: solvent Cyrene; for Maximum solubility (w/v) in Example 6: solvent Example 6; for Maximum solubility (w/v) in Rhodiasolv ADMA10: solvent Rhodiasolv ADMA10.
The nature of data set [2]: Solubility of mono-fungicides in the solvent of Example 1 and prior art solvents (Example 2). The conditions noted are these: for Maximum solubility (w/v) in Cyrene: solvent Cyrene; for Maximum solubility (w/v) in Example 1: solvent Example 1; for Maximum solubility (w/v) in Rhodiasolv ADMA10: solvent Rhodiasolv ADMA10; for Maximum solubility (w/v) in Rhodiasolv PolarClean: solvent Rhodiasolv PolarClean.
Excerpt: The concentration of the fungicides (w/v) was increased in 5% intervals and the highest still soluble concentration is stated in the table below.

The conditions of data set [3]: in Cyrene and NBP.
The mark [4] stands for this setting: 24° C., 5% intervals, highest still soluble concentration.

As to `OC(Cc1ccccc1Cl)(Cn1nc[nH]c1=S)C1(Cl)CC1` (stereo not drawn) [Prothioconazole], in data set [1], the “Maximum solubility (w/v) in Cyrene” value is 10% (w/v), the “Maximum solubility (w/v) in Example 6” value was >30% (w/v) and the “Maximum solubility (w/v) in Rhodiasolv ADMA10” value is 40% (w/v). Moreover, in data set [2] (0° C. after seeding), the “Maximum solubility (w/v) in Cyrene” value is on record as 10% (10%) % (w/v), the “Maximum solubility (w/v) in Example 1” value is 50% (50%) % (w/v), the “Maximum solubility (w/v) in Rhodiasolv ADMA10” value is listed as “(40%) % (w/v)” and the “Maximum solubility (w/v) in Rhodiasolv PolarClean” value was “(50%) % (w/v)”. Also, in data set [2] (24° C.), the “Maximum solubility (w/v) in Cyrene” value is recorded as 10% (10%) % (w/v), the “Maximum solubility (w/v) in Rhodiasolv ADMA10” value is recorded as 40% (w/v) and the “Maximum solubility (w/v) in Rhodiasolv PolarClean” value was 50% (w/v). Moreover, the “Maximum solubility (w/v) in Example 1” value in data set [2] (setting [4]) is recorded as 50% (50%) % (w/v).
As to `CC(C)N(C)S(=O)(=O)NC(=O)c1cc(-n2c(=O)cc(C(F)(F)F)n(C)c2=O)c(F)cc1Cl` [Saflufenacil], in data set [1], the “Maximum solubility (w/v) in Cyrene” value is 10% (w/v), the “Maximum solubility (w/v) in Example 6” value was >10% (w/v) and the “Maximum solubility (w/v) in Rhodiasolv ADMA10” value was 10% (w/v). Besides, in data set [2] (0° C. after seeding), the “Maximum solubility (w/v) in Cyrene” value is recorded as 10% (10%) % (w/v), the “Maximum solubility (w/v) in Example 1” value is 20% (20%) % (w/v), the “Maximum solubility (w/v) in Rhodiasolv ADMA10” value was “(10%) % (w/v)” and the “Maximum solubility (w/v) in Rhodiasolv PolarClean” value was “(25%) % (w/v)”. Further, in data set [2] (24° C.), the “Maximum solubility (w/v) in Cyrene” value is 10% (10%) % (w/v), the “Maximum solubility (w/v) in Rhodiasolv ADMA10” value is recorded as 10% (w/v) and the “Maximum solubility (w/v) in Rhodiasolv PolarClean” value was 25% (w/v). In addition, the “Maximum solubility (w/v) in Example 1” value in data set [2] (setting [4]) was 20% (20%) % (w/v).
With `COC(=O)N(OC)c1ccccc1COc1ccn(-c2ccc(Cl)cc2)n1` [Pyraclostrobin], in data set [1], the “Maximum solubility (w/v) in Cyrene” value was 45% (w/v), the “Maximum solubility (w/v) in Example 6” value is listed as >25% (w/v) and the “Maximum solubility (w/v) in Rhodiasolv ADMA10” value is reported as 15% (w/v). In data set [2] (0° C. after seeding), the “Maximum solubility (w/v) in Cyrene” value was 45% (45%) % (w/v), the “Maximum solubility (w/v) in Example 1” value was 45% (45%) % (w/v), the “Maximum solubility (w/v) in Rhodiasolv ADMA10” value was “(10) % (w/v)” and the “Maximum solubility (w/v) in Rhodiasolv PolarClean” value was “(45%) % (w/v)”. Moreover, in data set [2] (24° C.), the “Maximum solubility (w/v) in Cyrene” value was 45% (45%) % (w/v), the “Maximum solubility (w/v) in Rhodiasolv ADMA10” value was 15% (w/v) and the “Maximum solubility (w/v) in Rhodiasolv PolarClean” value is reported as 45% (w/v). Also, the “Maximum solubility (w/v) in Example 1” value in data set [2] (setting [4]) is reported as 45% (45%) % (w/v).
In the case of `CCCCNP(N)(N)=S` [NBPT, N-(n-butyl)thiophosphoric triamide], in data set [3] (even at 35% (w/v)), the “Viscosity of the resulting NBPT solution” value is on record as “highly viscous”. Also, the “Appearance of the NBPT solution” value in data set [3] (even at low concentrations) is “yellow discoloration”.
Regarding `CO/C=C(/C(=O)OC)c1ccccc1Oc1cc(Oc2ccccc2C#N)ncn1` [Azoxystrobin], in data set [1], the “Maximum solubility (w/v) in Cyrene” value is on record as 20% (w/v), the “Maximum solubility (w/v) in Example 6” value is 10% (w/v) and the “Maximum solubility (w/v) in Rhodiasolv ADMA10” value is given as 2% (w/v). In data set [2] (0° C. after seeding), the “Maximum solubility (w/v) in Cyrene” value was 20% (20%) % (w/v), the “Maximum solubility (w/v) in Example 1” value is on record as 10% (10%) % (w/v), the “Maximum solubility (w/v) in Rhodiasolv ADMA10” value is on record as “(2%) % (w/v)” and the “Maximum solubility (w/v) in Rhodiasolv PolarClean” value is listed as “(5%) % (w/v)”. In addition, in data set [2] (24° C.), the “Maximum solubility (w/v) in Cyrene” value is listed as 20% (20%) % (w/v), the “Maximum solubility (w/v) in Rhodiasolv ADMA10” value is 2% (w/v) and the “Maximum solubility (w/v) in Rhodiasolv PolarClean” value is 15% (w/v). Besides, the “Maximum solubility (w/v) in Example 1” value in data set [2] (setting [4]) was 10% (10%) % (w/v).
For `CC(C)(C)C(O)(CCc1ccc(Cl)cc1)Cn1cncn1` (stereo not drawn) [Tebuconazole], in data set [2] (0° C. after seeding), the “Maximum solubility (w/v) in Rhodiasolv ADMA10” value was “(20%) % (w/v)” and the “Maximum solubility (w/v) in Rhodiasolv PolarClean” value is given as “(30%) % (w/v)”.
